Measurements as given in patent US20040265917A1, “Methods of measuring the ability of a test compound to inactivate a biological target in cells of a subject” (priority 2003, published 2004).

Experiments:
[1] = biological target: T1, MetAP-2 (Mus musculus, UniProt O08663); test: Free MetAP-2 ELISA in tumor and liver tissue of mice bearing B16F10 murine melanoma tumors; type: in vivo, C57BL/6 mice; details: 3 or 30 mg/kg PO every other day; samples 24 hours after last dose
T1 construct: from tissue; host or cells: B16F10 murine melanoma tumor and liver of male C57BL/6 mice
Description: (§1) Male C57BL/6 mice were divided into six groups of 10 mice each. Each mouse received an implant of 10^6B16F10 murine melanoma cells in 100 μL of PBS above the leg. At day seven following implantation, one group of mice (Group 6) began a regimen of 100 mg/kg Compound 2 every other day, administered oral gavage (PO). At day 13 post implantation, the remaining groups began receiving treatment as follows: Group 1: […] vehicle (11 % hydroxypropyl cyclodextrin) every other day; Group 2: 5-fluorouracil 50 mg/kg in 1% propylene glycol/D5W, PO every other day; Group 3: Compound 2, 3 mg/kg PO every other day; Group 4: Compound 2, 30 mg/kg PO, every other day; Group 5: Compound 2, 100 mg/kg PO, every other day. In each group, the last dose was administered on day 19 post implantation, and blood, spleen, tumor, thymus and liver samples were collected from the mice 24 hours following the last dose.
(§2) The tissue samples were prepared for analysis following the protocols set forth in Example 2 and analyzed for free MetAP-2 using the ELISA protocol of Example 2. The prepared tissue samples were also analyzed for free MetAP-2 activity using the following protocol.
The results of this study are set forth in FIG. 5, which provides a comparison of the results obtained in tumor tissue and liver tissue using the ELISA protocol and those obtained using the gel-shift analysis.

[2] = biological target: T2, MetAP-2 (Rattus norvegicus, UniProt P38062); test: Free MetAP-2 ELISA (streptavidin plates, Compound 1 capture) in white blood cells and tissues of rats after a single dose, Phase IIa/IIb; type: in vivo, Sprague-Dawley rats
T2 construct: percentage of free MetAP-2 remaining in white blood cells, liver, spleen, lymph nodes and thymus; from tissue; host or cells: white blood cells, liver, spleen, lymph nodes, thymus of Sprague-Dawley rats
Description: Determination of Free MetAP-2 in Rat White Blood Cell Lysates and tissues Following Administration of Compound 2
Preparation of WBC Lysates
Spleen Homogenization and Lysis Procedure
Liver, Thymus and Lymph Nodes Homogenization and Lysis Procedure
Treat 20 μL of each lysate dividing into polypropylene 96-well plates: +Compound 2 Samples (Background Controls): Dilute 40 mM Compound 2 stock 1:4000 for a 10 μM working stock and add 2 μL to background samples for a final concentration of 1 μM Compound 2.
Dilute 40 mM Compound 1 stock 1:4000 for a 10 μM working stock and add 2 μL of diluted to the samples and 5 μL to the rMetAP2 standards for a final concentration of 1 μM; cover, tap gently to mix, and incubate for 1 hr at room temperature without shaking.
Remove the streptavidin plates from 4° C. at least 30 min prior to use Dilute each of the samples 1:10 (180 μL into the 20 μL sample) with PBST and mix well.
Transfer 20 μL and 40 μL aliquots of the diluted samples to streptavidin plates, adding to 30 μL and 10 μL of PBST (for total volumes of 50 μL each), and mix well: duplicate aliquots of each volume for the signal samples (signal sample=−Compound 2) and single aliquots of each volume for the background samples (background samples=+Compound 2).
Cover and incubate the plates at room temperature on plate shaker for 1 hr at medium speed.
Wash 3 times manually with 50 μL of 2% (w/v) SDS. Flick plate briskly over sink to remove 2% SDS. Tap on napkin to blot.
Add 50 μL of 1:500 anti-MetAP2 antibody in PBST using 12 channel pipette, so triplicates receive antibody at same time, cover and incubate at room temp. on plate shaker for 1 hr at medium speed. One plate requires 5 mL of PBST plus 10 μL of anti-MetAP2 antibody.
Add 50 μL of 1:5000 goat anti-rabbit-HRP antibody in PBST using the 12 channel pipette, cover and incubate at room temperature on plate shaker for 1 hr at medium speed. One plate requires 5 mL of PBST plus 1 μL anti-rabbit-HRP antibody. Aliquot 50 μL per well.
10 minutes after adding the TMB substrate, add 100 μL of 1 N H2SO4 and then measure the absorbance at 450 nm.
The purpose of this study was to determine the percentage of free MetAP-2 remaining in white blood cells, liver, spleen, lymph nodes and thymus as a pharmacodynamic marker of Compound 2 activity after a single dose was administered to Sprague-Dawley rats.
A repeat examination of MetAP-2 inhibition in WBCs was conducted with various dose levels of Compound 2, administered either IV or PO in female SD rats. In addition, thymus and liver were collected and snap frozen in liquid nitrogen for MetAP-2 analysis.
At 4, 24, 48, 72, 96, 120 hours post dose whole blood (≧3.0 mL) was taken from anesthetized animals (isoflurane inhalation to effect) via cardiac puncture, using a 20 gauge needle. Blood was immediately placed into EDTA tubes and stored at 4-8° C.
After blood collection animals were sacrificed by CO2 inhalation. The entire thymus and left lateral lobe of the liver were minced, placed into separate tissue cassettes, and snap frozen in liquid nitrogen for future MetAP-2 analysis.
To characterize MetAP-2 turnover in tissues after a single oral administration of Compound 2 and to determine if any sex difference existed.
Blood and tissue samples were collected from SD rats after receiving a single dose of Compound 2. Inhibition of MetAP-2 by Compound 2 was monitored using an ELISA designed to measure the amount of free MetAP-2 in a sample. Cells were lysed and then treated with Compound 1. Compound 1 covalently binds to the active site of MetAP-2 molecules that have not already been derivatized by Compound 2. The resulting biotinylated MetAP-2 is captured onto immobilized streptavidin, then detected with an anti-MetAP-2 antibody and an enzyme-linked secondary antibody. Phase I was used as a pilot study to determine if MetAP-2 inhibition could be monitored in female SD rat white blood cell (WBC) lysates after a single 30 mg/kg dose of Compound 2 administered IV, IP, PO or SC. […]

[3] = biological target: T1, MetAP-2; test: Free MetAP-2 gel shift assay with fluorescent fumagillin analogue (Compound 3) in tumor and liver tissue of mice bearing B16F10 murine melanoma tumors; type: in vivo, C57BL/6 mice; details: 3 or 30 mg/kg PO every other day; samples 24 hours after last dose
Description: as §1, §2
1. Dilute samples in 1.5 mL eppendorf tubes to their desired concentration in lysis buffer in 10 uL volume. See calculations.
2. To each tube, add 1 uL of 10 uM Compound 3stock that has been diluted in lysis buffer.
3. Incubate on ice for 1.0 hours. […]

[4] = biological target: T2, MetAP-2; test: Phase I pilot free MetAP-2 ELISA (streptavidin beads) in white blood cell lysates after a single dose; type: in vivo, female Sprague-Dawley rats; details: single 30 mg/kg dose IV, IP, PO or SC; female SD rats; all routes of administration
Description: MetAP-2 inhibition in white blood cells (WBC) was examined after a single dose (30 mg/kg) of Compound 2 , administered either by intravenous (IV), intraperitoneal (IP), oral gavage (PO) or subcutaneous (SC) routes, to female Sprague-Dawley (SD) rats
A ≧1.0 mL whole blood sample was taken from 3 animals/group/time point (4, 24, 48, 72, 96, and 120 hours post dose) for MetAP-2 analysis. Each animal was bled only once by conscious jugular venipuncture. Blood was immediately placed into EDTA tubes and stored at 4-8° C. Two blood smears from each sample were made for possible differential count analysis.
Blood and tissue samples were collected from SD rats after receiving a single dose of Compound 2. Inhibition of MetAP-2 by Compound 2 was monitored using an ELISA designed to measure the amount of free MetAP-2 in a sample. Cells were lysed and then treated with Compound 1. […] The resulting biotinylated MetAP-2 is captured onto immobilized streptavidin, then detected with an anti-MetAP-2 antibody and an enzyme-linked secondary antibody. Phase I was used as a pilot study to determine if MetAP-2 inhibition could be monitored in female SD rat white blood cell (WBC) lysates after a single 30 mg/kg dose of Compound 2 administered IV, IP, PO or SC. […] Following this analysis it was determined that signal from sample replicates were highly variable and the assay required revision. […]

[5] = Phase IIb, 3 mg/kg PO single dose, 48 hr

T2 sequence (P38062 whole entry): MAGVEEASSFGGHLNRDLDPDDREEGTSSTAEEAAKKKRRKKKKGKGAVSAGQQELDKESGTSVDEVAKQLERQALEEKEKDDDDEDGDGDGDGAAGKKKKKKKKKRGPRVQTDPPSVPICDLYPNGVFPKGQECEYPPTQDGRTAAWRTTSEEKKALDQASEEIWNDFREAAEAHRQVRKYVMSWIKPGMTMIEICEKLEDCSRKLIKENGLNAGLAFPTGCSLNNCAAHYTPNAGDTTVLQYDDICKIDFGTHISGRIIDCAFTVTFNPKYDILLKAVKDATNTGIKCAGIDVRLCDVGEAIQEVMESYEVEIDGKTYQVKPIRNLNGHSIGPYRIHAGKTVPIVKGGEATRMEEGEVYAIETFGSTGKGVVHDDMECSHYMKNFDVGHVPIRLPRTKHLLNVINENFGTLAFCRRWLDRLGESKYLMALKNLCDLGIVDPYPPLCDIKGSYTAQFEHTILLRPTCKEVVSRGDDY
T1 sequence (O08663 whole entry): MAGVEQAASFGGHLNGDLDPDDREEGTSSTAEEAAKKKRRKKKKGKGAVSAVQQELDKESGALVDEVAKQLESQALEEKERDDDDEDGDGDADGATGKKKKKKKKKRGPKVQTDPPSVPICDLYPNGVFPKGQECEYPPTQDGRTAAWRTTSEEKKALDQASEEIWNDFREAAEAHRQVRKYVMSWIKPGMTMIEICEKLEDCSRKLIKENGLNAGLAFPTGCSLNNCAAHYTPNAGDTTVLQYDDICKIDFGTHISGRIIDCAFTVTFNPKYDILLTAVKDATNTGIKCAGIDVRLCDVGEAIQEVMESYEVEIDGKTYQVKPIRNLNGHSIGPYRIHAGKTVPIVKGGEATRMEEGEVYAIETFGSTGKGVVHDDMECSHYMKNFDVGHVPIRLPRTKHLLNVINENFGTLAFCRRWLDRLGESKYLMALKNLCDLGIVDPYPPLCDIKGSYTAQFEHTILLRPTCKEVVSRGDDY

CO[C@@H]1[C@H](OC(=O)N[C@@H](C(N)=O)C(C)C)CC[C@]2(CO2)[C@H]1[C@@]1(C)O[C@@H]1CC=C(C)C [Compound 2, (1-Carbamoyl-2-methyl-propyl)-carbamic acid-(3R, 4S, 5S, 6R )-5-methoxy-4-[(2R, 3R)-2-methyl-3-(3-methyl-but-2-enyl)-oxiranyl]-1-oxa-spiro[2.5]oct-6-yl ester]
free MetAP-2 levels in liver tissue relative to controls (ELISA) [1]: dose-dependent decrease
free MetAP-2 levels in tumor tissue relative to controls (ELISA) [1]: dose-dependent decrease
duration of inhibition of MetAP-2 in WBC ([2]; Phase IIa, female SD rats, 30 mg/kg PO versus 0.3 and 3 mg/kg PO, single dose): more prolonged inhibition
sex differences in MetAP-2 inhibition ([2]; Phase IIb, male and female SD rats, 0.3 and 3 mg/kg PO, single dose): no consistent sex differences
effect on free MetAP-2 levels in tissues other than WBC and liver (spleen, thymus, lymph nodes) ([2]; Phase IIb, 0.3 mg/kg PO, single dose): no significant effect
free MetAP-2 level in WBC, average (±SEM) [2, 5]: 13%±4%
free MetAP-2 level in liver, average (±SEM) [2, 5]: 13%±5%
free MetAP-2 level in lymph nodes, average (±SEM) [2, 5]: 63%±16%
free MetAP-2 level in spleen, average (±SEM) [2, 5]: 41%±5%
free MetAP-2 level in thymus tissue [2, 5]: recovered completely
recovery of free MetAP-2 in WBC, 3 mg/kg versus 0.3 mg/kg group ([2]; Phase IIb, single PO dose, by 72 hr): recovered to similar free MetAP-2 levels
rank order of responsiveness of organs (MetAP-2 inhibition relative to WBC) ([2]; Phase IIb, single PO dose, tissues plotted relative to WBC): liver (most inhibited)>spleen≅lymph nodes>thymus
average free MetAP-2 remaining in tissues when no measurable free MetAP-2 in WBC ([2]; groups with no measurable free MetAP-2 in the WBC): ≤ 3%
inhibition at 3 mg/kg ([2]; rat, Phase IIb, 3 mg/kg PO single dose, four hours after dosing, WBC, liver, spleen, thymus, lymph nodes, read-out: average inhibition of MetAP-2 in all compartments): ≥ 95%
free MetAP-2 levels in liver tissue relative to controls (gel shift) [3]: dose-dependent decrease
free MetAP-2 levels in tumor tissue relative to controls (gel shift) [3]: dose-dependent decrease
free MetAP-2 signal in WBC lysates [4]: reduction followed by a recovery
